Measured values from patent publication US12617783B2, “Heterocyclic GLP-1R agonists” (BIOMEA FUSION, INC., priority 2024, dated 2026).
Where two headings read alike, the source gives them in different places.

Target: T1, human GLP-1R (Homo sapiens, UniProt P43220)
T1 construct: host or cells: HEK293
Experiment: GLP-1R cAMP assay (Example B1a, HTRF, 30 min at room temperature)
Assay type: cell-based
In short: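 Competitive HTRF read-out of cAMP after 30 min room-temperature stimulation, BETP absent, of human GLP-1R-HEK293 cells (1,000/well) in HEPES buffer with 500 μM IBMX and 0.1% BSA. Activation normalised to GLP-1(7-37) positive control. EC50 from 4-parameter non-linear regression.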

[1] = cAMP accumulation in HEK293 expressing human GLP-1R, no BETP, 30 min room temperature (Method B1a, compounds ID 1-609), Table 1, read-out: EC50

T1 sequence (P43220 24-463): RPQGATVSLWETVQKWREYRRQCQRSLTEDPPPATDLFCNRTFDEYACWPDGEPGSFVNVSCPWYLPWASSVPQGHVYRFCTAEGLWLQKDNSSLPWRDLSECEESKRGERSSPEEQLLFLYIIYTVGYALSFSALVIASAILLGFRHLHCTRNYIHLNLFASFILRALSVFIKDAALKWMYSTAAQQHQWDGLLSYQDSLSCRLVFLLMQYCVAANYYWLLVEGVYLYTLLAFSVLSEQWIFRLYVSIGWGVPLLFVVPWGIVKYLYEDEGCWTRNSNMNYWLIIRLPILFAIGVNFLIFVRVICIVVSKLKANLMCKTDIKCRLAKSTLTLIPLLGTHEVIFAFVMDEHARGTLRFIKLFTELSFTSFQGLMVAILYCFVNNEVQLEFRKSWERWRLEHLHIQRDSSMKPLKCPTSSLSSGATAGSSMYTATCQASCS

Compound | EC50 [1] | also measured
Cc1cc(-n2nc3c(c2-n2ccn(-c4ccc5c(cnn5C)c4F)c2=O)[C@@H]2CC[C@H]([C@H]3F)N2C(=O)c2cc3cc([C@H]4CCOC(C)(C)C4)ccc3n2[C@@]2(c3noc(=O)[nH]3)C[C@@H]2C)cc(C)c1F [Compound 512, 3-[(1S,2S)-1-[5-[(4S)-2,2-dimethyltetrahydropyran-4-yl]-2-[(1S,7R,8R)-7-fluoro-4-(4-fluoro-3,5-dimethyl-phenyl)-3-[3-(4-fluoro-1-methyl-indazol-5-yl)-2-oxo-imidazol-1-yl]-4,5,11-triazatricyclo[6.2.1.02,6]undeca-2,5-diene-11-carbonyl]indol-1-yl]-2-methyl-cyclopropyl]-4H-1,2,4-oxadiazol-5-one] | 226 nM | EC50 Ratio (Table 1d, potency ratio of stereoisomer pair (less potent / more potent isomer)): >83; EC50 (Table 1d, stereoisomer pairs, read-out: EC50): 226 nM; EC50 (text to Table 1d, bridge atoms configured into the plane or away from the reader, read-out: potency (EC50)): < 1000 nM
Cc1cc(-n2nc3c(c2-n2ccn(-c4ccc5c(cnn5C)c4F)c2=O)[C@@H]2COC[C@H](C3)N2S(=O)(=O)c2cc3cc(C4CCOCC4)ccc3n2[C@@]2(c3noc(=O)[nH]3)C[C@@H]2C)cc(C)c1F [Compound 526, 3-[(1S,2S)-1-[2-[[(1R,8S)-4-(4-fluoro-3,5-dimethyl-phenyl)-3-[3-(4-fluoro-1-methyl-indazol-5-yl)-2-oxo-imidazol-1-yl]-10-oxa-4,5,12-triazatricyclo[6.3.1.02,6]dodeca-2,5-dien-12-yl]sulfonyl]-5-tetrahydropyran-4-yl-indol-1-yl]-2-methyl-cyclopropyl]-4H-1,2,4-oxadiazol-5-one] | 1130 nM | –
Cc1cc(-n2nc3c(c2-n2ccn(-c4ccc5c(cnn5C)c4F)c2=O)[C@@H]2CC[C@H](C3)N2C(=O)c2cc3nc([C@H]4CCOC(C)(C)C4)sc3n2[C@@]2(c3noc(=O)[nH]3)C[C@@H]2C)cc(C)c1F [Compound 206, 3-[(1S,2S)-1-[2-[(4S)-2,2-dimethyltetrahydropyran-4-yl]-5-[(1S,8R)-4-(4-fluoro-3,5-dimethyl-phenyl)-3-[3-(4-fluoro-1-methyl-indazol-5-yl)-2-oxo-imidazol-1-yl]-4,5,11-triazatricyclo[6.2.1.02,6]undeca-2,5-diene-11-carbonyl]pyrrolo[3,2-d]thiazol-4-yl]-2-methyl-cyclopropyl]-4H-1,2,4-oxadiazol-5-one] | 1440 nM | –
Cc1cc(-n2nc3c(c2-n2ccn(-c4ccc5c(cnn5C)c4F)c2=O)[C@@H]2CC[C@H](C3)N2C(=O)c2cc3ccc([C@H]4CCOC(C)(C)C4)cc3nc2[C@@]2(c3noc(=O)[nH]3)C[C@@H]2C)cc(C)c1F [Compound 318, 3-[(1R,2S)-1-[7-[(4S)-2,2-dimethyltetrahydropyran-4-yl]-3-[(1S,8R)-4-(4-fluoro-3,5-dimethyl-phenyl)-3-[3-(4-fluoro-1-methyl-indazol-5-yl)-2-oxo-imidazol-1-yl]-4,5,11-triazatricyclo[6.2.1.02,6]undeca-2,5-diene-11-carbonyl]-2-quinolyl]-2-methyl-cyclopropyl]-4H-1,2,4-oxadiazol-5-one] | 870 nM | –
Cc1cc(-n2nc3c(c2-n2ccn(-c4ccc5c(cnn5C)c4F)c2=O)[C@@H]2COC[C@H](C3)N2C(=O)c2cc3cc([C@H]4CCOC(C)(C)C4)ncc3n2[C@@]2(c3noc(=O)[nH]3)C[C@@H]2C)cc(C)c1F [Compound 225, 3-((1S,2S)-1-(5-((S)-2,2-dimethyltetrahydro-2H-pyran-4-yl)-2-((4R,8S)-3-(3-(4-fluoro-1-methyl-1H-indazol-5-yl)-2-oxo-2,3-dihydro-1H-imidazol-1-yl)-2-(4-fluoro-3,5-dimethylphenyl)-2,4,5,7,8,9-hexahydro-4,8-epiminooxocino [5,4-c]pyrazole-10-carbonyl)-1H-pyrrolo[2,3-c]pyridin-1-yl)-2-methylcyclopropyl)-1,2,4-oxadiazol-5 (4H)-one] | 34.1 nM | –
Cc1cc(-n2nc3c(c2-n2ccn(-c4ccc5c(cnn5C)c4F)c2=O)[C@@H]2CC[C@H](C3)N2S(=O)(=O)c2cc3cc(C4CCOC(C)(C)C4)ccc3n2[C@@]2(c3noc(=O)[nH]3)C[C@@H]2C)cc(C)c1F (stereo partly drawn) [Compound 503, 3-((1S,2S)-1-(5-(2,2-dimethyltetrahydro-2H-pyran-4-yl)-2-(((4S,7R)-3-(3-(4-fluoro-1-methyl-1H-indazol-5-yl)-2-oxo-2,3-dihydro-1H-imidazol-1-yl)-2-(4-fluoro-3,5-dimethylphenyl)-2,4,5,6,7,8-hexahydro-4,7-epiminocyclohepta [c]pyrazol-9-yl)sulfonyl)-1H-indol-1-yl)-2-methylcyclopropyl)-1,2,4-oxadiazol-5 (4H)-one] | 97.8 nM | –

Continued, in another order:

EC50 [1] | Compound | also measured
≥ 10000 nM | Cc1cc(-n2nc3c(c2-n2ccn(-c4ccc5c(cnn5C)c4F)c2=O)[C@@H]2CC[C@H](C3)N2C(=O)c2cc3cc([C@H]4CCOC5(CC5)C4)ccc3n2[C@]2(c3noc(=O)[nH]3)C[C@H]2C)cc(C)c1F [Compound 519, 3-[(1R,2R)-1-[2-[(1S,8R)-4-(4-fluoro-3,5-dimethyl-phenyl)-3-[3-(4-fluoro-1-methyl-indazol-5-yl)-2-oxo-imidazol-1-yl]-4,5,11-triazatricyclo[6.2.1.02,6]undeca-2,5-diene-11-carbonyl]-5-[(7S)-4-oxaspiro[2.5]octan-7-yl]indol-1-yl]-2-methyl-cyclopropyl]-4H-1,2,4-oxadiazol-5-one] | –
≥ 10000 nM | Cc1cc(-n2nc3c(c2-n2ccn(-c4ccc5c(cnn5C)c4F)c2=O)[C@@H]2CC[C@H](C3)N2C(=O)c2cc3cc([C@H]4CCOC4(C)C)ccc3n2[C@@]2(c3noc(=O)[nH]3)C[C@@H]2C)cc(C)c1F [Compound 419, 3-[(1S,2S)-1-[5-[(3R)-2,2-dimethyltetrahydrofuran-3-yl]-2-[(1S,8R)-4-(4-fluoro-3,5-dimethyl-phenyl)-3-[3-(4-fluoro-1-methyl-indazol-5-yl)-2-oxo-imidazol-1-yl]-4,5,11-triazatricyclo[6.2.1.02,6]undeca-2,5-diene-11-carbonyl]indol-1-yl]-2-methyl-cyclopropyl]-4H-1,2,4-oxadiazol-5-one] | –
1930 nM | Cc1cc(-n2nc3c(c2-n2ccn(-c4ccc5c(cnn5C)c4F)c2=O)[C@@H]2CC[C@H](C3)N2S(=O)(=O)c2cc3cc(C4CCOC(C)(C)C4)ccc3n2[C@]2(c3noc(=O)[nH]3)C[C@@H]2C)cc(C)c1F (stereo partly drawn) [Compound 504, 3-[(1R,2S)-1-[5-(2,2-dimethyltetrahydropyran-4-yl)-2-[[(1S,8R)-4-(4-fluoro-3,5-dimethyl-phenyl)-3-[3-(4-fluoro-1-methyl-indazol-5-yl)-2-oxo-imidazol-1-yl]-4,5,11-triazatricyclo[6.2.1.02,6]undeca-2,5-dien-11-yl]sulfonyl]indol-1-yl]-2-methyl-cyclopropyl]-4H-1,2,4-oxadiazol-5-one] | –
81.2 nM | Cc1cc(-n2nc3c(c2-n2ccn(-c4ccc5c(cnn5C)c4F)c2=O)[C@@H]2CC[C@H](C3)N2C(=O)c2cc3cc(C4CCOC5(CC5)C4)ccc3n2[C@@]2(c3noc(=O)[nH]3)C[C@@H]2C)cc(C)c1F (stereo partly drawn) [Compound 213, 3-((1S,2S)-1-(2-((4S,7R)-3-(3-(4-fluoro-1-methyl-1H-indazol-5-yl)-2-oxo-2,3-dihydro-1H-imidazol-1-yl)-2-(4-fluoro-3,5-dimethylphenyl)-2,4,5,6,7,8-hexahydro-4,7-epiminocyclohepta [c]pyrazole-9-carbonyl)-5-(4-oxaspiro[2.5]octan-7-yl)-1H-indol-1-yl)-2-methylcyclopropyl)-1,2,4-oxadiazol-5 (4H)-one] | –
